Test results as given in US12558333B2, “Agent for ameliorating and/or preventing sickle cell disease” (The University of Tokyo, priority 2019, dated 2026).
Where a name gives a salt, the structure may show the parent alone.

Key:
SCD homo mice = details: normal oxygen concentration; 4 weeks; 5-ALA hydrochloride 50 mg/kg/day and/or SFC 3.9 mg/kg/day; vs physiological saline (FIG. 10); combination P<0.05
Procedure: All the prepared smear specimens were stained with May-Giemsa in the same manner as in Example 2, and the ratio of sickle cells to all red blood cells was measured. The rate of the sickle cells of the groups were compared with each other to examine the effect of the combination of 5-ALA hydrochloride and SFC on the rate of the in vivo sickle cells.

[1] = tested on: red blood cells collected from SCD homo mice; experiment: Sickling by hypoxia exposure of cultured red blood cells collected from SCD homo mice; assay type: cell-based, mouse; details: then 4% O2 for 1.5 hours
Source text: SCD model mice aged 8 to 20 weeks were used. In the mice, a human HBA gene and a human HBB gene are knocked in a mouse HBA gene locus and a mouse HBB gene locus, respectively, and a gene mutation (β^s mutation) causing amino acid substitution (Val6Glu) causing SCD is introduced into the human HBB gene. Furthermore, a human HBG gene is introduced, and expression switching from post-natal γ-globin to β-globin is designed to occur as in humans. […] The SCD homo mouse was anesthetized with isoflurane, and 100 μl of blood was then collected from the vein behind the jawbone into an EDTA-2Na-coated blood sampling tube using an animal lamp set. The coagulation of the blood was prevented by lightly tapping the tube. The collected blood was transferred to a 1.5 ml tube, and centrifuged for 10 minutes under conditions of 3000 rpm and 4° C. After removing the supernatant, 1 ml of PBS was added to the precipitated red blood cells, followed by mixing by inversion, to wash the cells. The red blood cells obtained by repeating this washing operation again were diluted 200 times with a cell culture solution (RPMI 1640, 10% FBS, 1% Penicillin-Streptomycin-Fungizone Cocktail), and cultured under the conditions of 37° C., 5% CO2, and 21% O2. This red blood cell culture solution was used in the experiment within 5 days from the start of culture. […]

SCD homo mouse = experiment: Bleeding stress due to blood sampling in SCD model mice (blood LDH level); assay type: in vivo; details: 50/3.9 mg/kg single administration after first blood sampling, blood sampling 2 after 3 hours, vs physiological saline
Procedure: Using the LDH levels in blood in the SCD model mice as an index, the effect of 5-ALA hydrochloride on bleeding stress due to blood sampling in the SCD patients was examined.
The LDH levels in the blood collected before and after the administration were measured, and the effect of the combination of 5-ALA hydrochloride and SFC on bleeding stress due to blood sampling was evaluated.

Row | Compound | rate of the in vivo sickle cells (SCD homo mice) | red blood cells exhibiting a sickle form ([1]; 50 μM for 4 hours, SCD homo mouse No. 72, vs 0 μM (FIG. 1)) | sickling rate ([1]; 10, 25 and 50 μM for 4 hours, vs 0 μM (FIG. 2)) | increase in the LDH level in blood after blood sampling (SCD homo mouse)
1 | sodium ferrous citrate [SFC] | little effect | – | – | –
2 | NCC(=O)CCC(=O)O [5-ALA hydrochloride, 5-aminolevulinic acid] | slightly decreases | remarkable decrease | concentration-dependent decrease | markedly suppressed
